Structures can show the parent of a compound that is named as a salt. Values belong to the compound of their own block, whether it stands above or below them.
Tests used:
OapR = assay: cells; design: species or system Cupriavidus necator H16; RFP reporter induction by transcription factor biosensor, fluorescence normalised to cell density, relative to primary effector; conditions: 6 h; relative to primary effector, C. necator, MM; read-out: % activation
Description: (§1) To screen the 441 combinations of inducer and biosensor for cross-reactivity, we employed an automated platform (see Methods section). Strains of C. necator harbouring the inducible systems were grown in MM and transferred to a 96-well microtiter plate format. After the inducers had been extracellularly added, cells were cultured for 6 h before RFP fluorescence and cell density were measured. […] The remaining six inducible systems were activated by one or more metabolites other than their cognate inducers. This cross-reactivity may be the result of either structural resemblance, a metabolic relationship or a combination thereof. For example, L-phenylalanine is converted into L-tyrosine by the phenylalanine 4-monooxygenase PhhA (H16_RS18365). Therefore, activation of the L-tyrosine-inducible system by L-phenylalanine is more likely to be due to biological conversion of the added compound into the primary effector rather than direct interaction of L-phenylalanine with HpdA. However, since the difference between the two molecules lies in a singly hydroxyl-group, an induction by structural resemblance cannot be entirely ruled out. The same applies to phenylglyoxylate that activated the benzoate-inducible system. Phenylglyoxylate is converted by C. necator into benzoate via a two-step reaction with benzaldehyde as intermediate compound. During the first reaction, carbon dioxide is generated that may also explain induction of the formate-inducible system by the structurally dissimilar phenylglyoxylate. Since carbon dioxide can subsequently be converted into formate, it is rational to postulate that the FdsR/PH16_RS03165-inducible system is activated in this case by its primary inducer. In addition to phenylglyoxylate, the benzoate-inducible system was activated by extracellular supplementation with cyclohexanecarboxylate and cumate. Cyclohexanecarboxylate shares both a structural resemblance to benzoate and downstream  Fig. 6 Orthogonality of inducible systems. a Cross-reactivity of a set of 21 inducible systems and their corresponding primary inducers. The heat map illustrates induction of reporter gene expression in the presence of the metabolite (in %) relative to the induction mediated by the corresponding primary effector. Measurements were taken 6 h after supplementation with inducer at a final concentration of 5 mM. Data are mean, n = 4. Source data are provided as a Source Data file. b Fluorescence output of individual cells of C. necator carrying pEH263 measured by flow cytometry. The vector pEH263 contains the 3,4-dihydroxybenzoate- and [compound left out]-inducible systems controlling expression of rfp and egfp, respectively. Fluorescence was determined in the absence of inducer (orange), in the presence of 3,4-dihydroxybenzoate (blue), [compound left out] (green), and both 3,4-dihydroxybenzoate and [compound left out] (purple). Effector concentrations correspond to their respective Km’s and fluorescence was measured 2 h after inducer addition.

HpdR [1] = assay: cells; design: species or system Cupriavidus necator H16; RFP reporter induction by transcription factor biosensor, fluorescence normalised to cell density, relative to primary effector; conditions: 6 h; relative to primary effector, C. necator, MM; read-out: % activation
Description: as §1

FdsR = FdsR (Cupriavidus necator, UniProt Q0KDY4); assay: cell-based
Chain of FdsR (Q0KDY4 1-364): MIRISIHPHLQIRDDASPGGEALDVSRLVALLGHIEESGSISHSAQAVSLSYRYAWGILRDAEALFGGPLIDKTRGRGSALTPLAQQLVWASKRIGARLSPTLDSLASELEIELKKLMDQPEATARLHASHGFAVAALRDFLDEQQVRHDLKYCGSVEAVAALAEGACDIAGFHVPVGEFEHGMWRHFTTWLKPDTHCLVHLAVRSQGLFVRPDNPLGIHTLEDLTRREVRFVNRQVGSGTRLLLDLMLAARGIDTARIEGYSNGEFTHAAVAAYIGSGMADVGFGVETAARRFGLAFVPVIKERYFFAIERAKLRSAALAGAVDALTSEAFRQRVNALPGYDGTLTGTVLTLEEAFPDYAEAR
Text: RFP reporter dose-response in C. necator H16, Hill fit on FdsR

XdhR = tested on: T1, XdhR; assay: RFP reporter dose-response in C. necator H16, Hill fit; assay type: cell-based, Cupriavidus necator; conditions: inducer concentration for half-maximal activation; extracellular inducer, minimal medium, 30 °C, 80 min; whole cells with chromosomal regulator copy; read-out: Km^b
T1 construct: native full-length gene, divergent to operon starting at H16_RS05055; reporter plasmid pEH154 (plasmid assigned by list order)

KynR = molecular target: T2, KynR (Cupriavidus necator, UniProt Q0K7Y0); assay: as above; assay type: cell-based; conditions: read-out: Km^b
T2 construct: gene H16_A2813; native full-length gene, divergent to operon starting at H16_RS14030; reporter plasmid pEH136 (plasmid assigned by list order)
T2 sequence (Q0K7Y0 1-160): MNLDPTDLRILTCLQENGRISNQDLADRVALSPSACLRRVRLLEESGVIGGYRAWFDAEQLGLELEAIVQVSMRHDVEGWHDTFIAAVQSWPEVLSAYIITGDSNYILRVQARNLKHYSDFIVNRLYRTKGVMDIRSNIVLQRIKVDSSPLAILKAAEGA
Description: RFP reporter dose-response in C. necator H16, Hill fit on KynR

HpdR [2] = tested on: T3, HpdR; assay: as above; assay type: cell-based, Cupriavidus necator; conditions: inducer concentration for half-maximal activation; extracellular inducer, minimal medium, 30 °C, 80 min; whole cells with chromosomal regulator copy; read-out: Km^b
T3 construct: native full-length gene, divergent to operon starting at H16_RS18295; reporter plasmid pEH010 (plasmid assigned by exclusion)
Description: RFP reporter dose-response in C. necator H16, Hill fit on HpdR

HpdA [3] = assay: cells; design: species or system Cupriavidus necator H16; RFP reporter induction by transcription factor biosensor, fluorescence normalised to cell density, relative to primary effector; conditions: 6 h; relative to primary effector, C. necator, MM; read-out: % activation
Description: as §1

PhhR = molecular target: T4, PhhR (Cupriavidus necator, UniProt Q0K5I4); assay: RFP reporter dose-response in C. necator H16, Hill fit; assay type: cell-based; conditions: read-out: Km^b
T4 construct: native full-length gene, divergent to phhA (H16_RS18365); reporter plasmid pEH137 (plasmid assigned by list order)
T4 sequence (Q0K5I4 1-234): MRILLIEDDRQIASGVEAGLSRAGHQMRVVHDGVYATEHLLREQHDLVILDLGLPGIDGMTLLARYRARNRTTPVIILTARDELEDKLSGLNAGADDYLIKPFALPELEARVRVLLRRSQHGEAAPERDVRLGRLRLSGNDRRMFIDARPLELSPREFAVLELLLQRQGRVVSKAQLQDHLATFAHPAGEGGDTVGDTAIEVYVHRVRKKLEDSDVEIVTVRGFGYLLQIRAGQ

HpdA [4] = tested on: T5, HpdA; assay: as above; assay type: cell-based, Cupriavidus necator; conditions: inducer concentration for half-maximal activation; extracellular inducer, minimal medium, 30 °C, 80 min; whole cells with chromosomal regulator copy; read-out: Km^b
T5 construct: native full-length regulator gene, divergent to operon starting at H16_RS24175; reporter plasmid pEH158 (plasmid assigned by list order)
Description: RFP reporter dose-response in C. necator H16, Hill fit on HpdA

BenM [5] = assay: cells; design: species or system Cupriavidus necator H16; RFP reporter induction by transcription factor biosensor, fluorescence normalised to cell density, relative to primary effector; conditions: 6 h; relative to primary effector, C. necator, MM; read-out: % activation
Description: as §1

BenM [6] = molecular target: T6, BenM (Cupriavidus necator, UniProt Q0KAA5); assay: cell-based; design: RFP reporter induction by transcription factor biosensor, single time-point fluorescence in LB, relative to primary effector; conditions: Escherichia coli TOP10; relative to primary effector, E. coli, LB; read-out: % activation
T6 construct: native full-length gene, divergent to operon starting at H16_RS09790; reporter plasmid pEH148 (plasmid assigned by list order)
T6 sequence (Q0KAA5 1-305): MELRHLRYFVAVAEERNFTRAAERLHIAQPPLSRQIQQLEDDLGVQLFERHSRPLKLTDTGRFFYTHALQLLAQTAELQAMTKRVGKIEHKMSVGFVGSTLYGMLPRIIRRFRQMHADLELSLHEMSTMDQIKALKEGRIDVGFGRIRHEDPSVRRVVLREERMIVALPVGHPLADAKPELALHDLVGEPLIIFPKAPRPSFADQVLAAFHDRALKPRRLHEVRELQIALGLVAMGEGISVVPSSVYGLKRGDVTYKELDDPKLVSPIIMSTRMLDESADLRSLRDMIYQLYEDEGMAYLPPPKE
Text: (§2) TRs often recognise molecules that are structurally similar to their primary effectors. For example, isopropyl β-D-1-thiogalactopyranoside is a commonly used structural analogue of allolactose, employed to control the expression of genes regulated by LacI. Here, the TR’s specificity was investigated to identify previously uncharacterised ligand–TR interactions and consequently extend the biosensor application to the detection of structurally similar or metabolically related compounds. To do so, the library of 21 native and heterologous inducible systems was screened against 46 compounds using an integrated robotic platform, as described in the previous section. […] Similarly to the former orthogonality screen (Fig. 6a), it should be noted that activation of reporter gene expression by the extracellularly added compounds likely indicates a structural resemblance to the primary ligand, a metabolic relationship or a combination thereof. To shed light on their cause of system activation, cultures of E. coli carrying the functional formate-, [compound left out]-, benzoate-, 3,4-dihydroxybenzoate-, acetoin- and β-alanine-inducible systems, active in this host organism, were evaluated for the same cross-reactivity (Supplementary Table 5).  Fig. 3 C. necator native systems mediate controllable gene expression in E. coli and P. putida. Single time-point fluorescence measurements of a, b E. coli and c, d P. putida carrying the C. necator-inducible gene expression systems composed of TR and promoter a, c or ‘promoter only’ version b, d. The plasmids harbouring the individual system– or promoter–reporter gene constructs are indicated. RFP fluorescence output was determined in the absence of inducer (light purple and light blue) and 6 h after extracellular supplementation with the corresponding primary effector to a final concentration of 5 mM (dark purple and dark blue). Data are mean ± SD, n = 3, *p < 0.05, **p < 0.01, ***p ≤ 0.001, ****p ≤ 0.0001, unpaired two-tailed t-test. Source data are provided as a Source Data file. All strains used in this study are listed in Supplementary Table 7. E. coli TOP10 (Life Technologies) was used for cloning and plasmid propagation. For single time-point fluorescence measurements and flow cytometric analyses, bacterial strains were propagated in Luria-Bertani (LB) medium. To determine the dose–responses and to evaluate inducer TR cross-reactivity, C. necator was cultivated in MM containing 1 g/L NH4Cl, 9 g/L Na2HPO4·12H2O, 1.5 g/L KH2PO4, 0.2 g/L MgSO4·7H2O, 0.02 g/L CaCl2·2H2O and 0.0012 g/L (NH4)5[Fe(C6H4O7)2] with 1 mL/L trace element solution SL7 (1.3 mL/L 25% (w/v) HCl, 0.07 g/L ZnCl2, 0.1 g/L MnCl2·4H2O, 0.062 g/L H3BO3, 0.190 g/L CoCl2·6H2O, 0.017 g/L CuCl2·2H2O, 0.024 g/L NiCl2·6H2O and 0.036 g/L Na2MoO4·2H2O) supplemented with 0.4% (w/v) sodium gluconate. If required, antibiotics were added to the growth medium at the following concentrations: 12.5 µg/mL tetracycline or 25 µg/mL chloramphenicol for E. coli, 50 µg/mL chloramphenicol for C. necator and 25 µg/mL tetracycline for P. putida. For solid media preparation, 15 g/L agar was added.

PcaQ = molecular target: T7, PcaQ (Cupriavidus necator, UniProt Q0JYV0); assay: RFP reporter dose-response in C. necator H16, Hill fit; assay type: cell-based; conditions: read-out: Km^b
T7 construct: native full-length gene, divergent to operon starting at H16_RS30145; reporter plasmid pEH161 (plasmid assigned by list order)
T7 sequence (Q0JYV0 1-317): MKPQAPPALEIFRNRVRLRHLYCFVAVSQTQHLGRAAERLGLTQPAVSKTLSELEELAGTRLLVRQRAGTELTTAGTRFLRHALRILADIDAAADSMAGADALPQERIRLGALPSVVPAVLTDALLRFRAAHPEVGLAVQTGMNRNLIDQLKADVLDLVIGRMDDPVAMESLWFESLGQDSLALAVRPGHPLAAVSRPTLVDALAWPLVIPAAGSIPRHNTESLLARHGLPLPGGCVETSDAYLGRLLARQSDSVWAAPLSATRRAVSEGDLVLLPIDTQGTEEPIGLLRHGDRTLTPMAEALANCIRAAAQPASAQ

AcoR [7] = assay: cells; design: species or system Cupriavidus necator H16; RFP reporter induction by transcription factor biosensor, fluorescence normalised to cell density, relative to primary effector; conditions: 6 h; relative to primary effector, C. necator, MM; read-out: % activation
Description: as §1

AcoR [8] = molecular target: T8, AcoR (Cupriavidus necator, UniProt P28614); assay: cell-based; design: RFP reporter induction by transcription factor biosensor, single time-point fluorescence in LB, relative to primary effector; conditions: Escherichia coli TOP10; relative to primary effector, E. coli, LB; read-out: % activation
T8 construct: native full-length gene, divergent to operon starting at H16_RS19445; reporter plasmid pEH052 (plasmid assigned by list order)
T8 sequence (P28614 1-668): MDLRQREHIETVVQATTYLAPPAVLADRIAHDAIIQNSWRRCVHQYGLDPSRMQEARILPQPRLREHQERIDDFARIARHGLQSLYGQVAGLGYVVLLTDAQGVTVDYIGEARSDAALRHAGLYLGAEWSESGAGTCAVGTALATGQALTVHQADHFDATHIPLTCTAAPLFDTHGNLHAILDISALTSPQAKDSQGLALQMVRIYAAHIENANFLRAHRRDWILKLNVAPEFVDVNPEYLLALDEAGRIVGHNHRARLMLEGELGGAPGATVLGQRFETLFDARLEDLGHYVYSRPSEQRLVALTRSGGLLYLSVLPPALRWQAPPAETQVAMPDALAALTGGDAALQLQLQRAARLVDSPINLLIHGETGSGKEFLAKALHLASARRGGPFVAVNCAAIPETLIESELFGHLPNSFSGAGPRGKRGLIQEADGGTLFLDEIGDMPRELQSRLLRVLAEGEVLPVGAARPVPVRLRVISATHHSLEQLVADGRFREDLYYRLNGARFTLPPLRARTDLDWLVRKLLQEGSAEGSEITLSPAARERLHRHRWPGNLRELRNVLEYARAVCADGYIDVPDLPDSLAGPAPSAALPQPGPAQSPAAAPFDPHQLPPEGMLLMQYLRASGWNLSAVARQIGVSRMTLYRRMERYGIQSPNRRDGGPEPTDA
Text: as §2

Structure (SMILES): C=CC(=O)O [Acrylate]
activity at 5000 µM (OapR): 68%
activity at 5000 µM (HpdR [1]): 113%

Structure (SMILES): O=CO [compound 2, Formate]
EC50 (FdsR): 130 ± 7 µM

Structure (SMILES): N[C@@H](Cc1ccc(O)cc1)C(=O)O [compound 13, L-tyrosine]
EC50 (HpdA [4]): 9.9 ± 2.2 µM

Structure (SMILES): O=C(O)C1CCCCC1 [compound 14, Cyclohexanecarboxylate]
activity at 5000 µM (BenM [5]): 110%
activity at 5000 µM (BenM [6]): 4.3%

Further lines, with some results ahead:

EC50 (XdhR): 13 ± 1.4 µM
Structure (SMILES): O=c1[nH]c(=O)c2[nH]cnc2[nH]1 [compound 3, Xanthine]

EC50 (KynR): 2.64 ± 0.18 µM
Structure (SMILES): Nc1ccccc1C(=O)C[C@H](N)C(=O)O [compound 9, L-kynurenine]

EC50 (HpdR [2]): 13.2 ± 1.9 µM
Structure (SMILES): O=C(O)CCO [compound 10, 3-Hydroxypropanoate]

EC50 (PhhR): 16.9 ± 2.2 µM
Structure (SMILES): N[C@@H](Cc1ccccc1)C(=O)O [compound 11, L-phenylalanine]
activity at 5000 µM (HpdA [3]): 77%

EC50 (PcaQ): 8.63 ± 0.4 µM
Structure (SMILES): O=C(O)c1ccc(O)c(O)c1 [compound 16, 3,4-Dihydroxybenzoate]

activity at 5000 µM (AcoR [8]): 0%
activity at 5000 µM (BenM [6]): 2%
Structure (SMILES): CC(C)c1ccc(C(=O)O)cc1 [cumate]
activity at 5000 µM (AcoR [7]): 18%
activity at 5000 µM (BenM [5]): 100%
